# Results published in article PMC6895180 (Nature Communications, 2019).
# Several values for one entry are separate records, joined by “and”; a condition that tells them apart may be missing. Equal entries are not always repeated. Where two headings read alike, the source gives them in different places.
# Experiments:
# P2 transporter (TbAT1) [1] = target: T1, P2 transporter (TbAT1) (Trypanosoma brucei brucei, UniProt Q9Y0I0); experiment: cell-based
# Method: Non-specific association of radiolabel with the cell pellet was determined using an identical incubation in the presence of saturating (1 mM) unlabelled adenosine.
# [2] = tested on: T. brucei BSF s427 wildtype cells; experiment: Growth assays of T. brucei (trypanocidal/trypanostatic effect); assay type: cell-based, Trypanosoma brucei; details: experiment 1
# Method: Growth assays of T. brucei
# To test the effect of the novel adenosine analogues on the growth of T. brucei BSF, s427 wildtype cells were seeded at 1×10^5 cells mL-1 in 5 mL of HMI-9 medium with 10% FBS and treated with compounds […]
# cells were also incubated in drug-free medium under the same conditions. 2 μM of 2’-deoxycoformycin were added to all cultures to avoid any potential effect of serum adenosine deaminase on the activity of test compounds and cordycepin.1
# Cells were manually counted in Neubauer chambers at 0, 2, 4, 6, 8, 12, 24, 36 and 48 h after addition of […]
# the drugs. […]
# After 6 and 12 h after addition of drugs, approximately 2×10^6 cells were harvested from each group and applied to glass slides pre-treated with poly-L-lysine, left to settle for 5 min and fixed with 4% formaldehyde for 4 min. The formaldehyde was neutralised by addition of 100 mM glycine (20 min).
# Cells were washed once with PBS and blocked for 1 h with 1% BSA/0.2% Tween-20 in PBS. Cells were […]
# [3] = tested on: Lister 427WT T. b. brucei; experiment: Adenosine deaminase susceptibility (drug sensitivity with/without 2 µM deoxycoformycin); assay type: cell-based, Trypanosoma brucei brucei; details: Trypanosoma brucei, Lister 427WT, mean ± SEM, n=3
# Method: Drug susceptibility tests with Lister 427WT, TbAT1-KO[48], B48[26] and ISMR1[27] were performed using an assay based on the viability indicator dye resazurin in 96-well plates, each well containing 2 × 10^4 cells. The plates were incubated for 48 h with a doubling dilution series of the test compounds in HMI-9/fetal bovine serum at 37 °C/5% CO2 (23 dilutions starting at 100 µM, except for the pentamidine control (50 µM)), after which resazurin (20 µL of 125 µg mL^−1 resazurin sodium salt solution was added to each well (containing 200 µL of cells and test compound)) was added to each well and the plates incubated for another 24 h. Fluorescence was determined using a FLUOstar Optima (BMG Labtech, Durham, NC) and the results fitted to a sigmoid curve with variable slope using Prism 5.0 or Prism 7.04 (GraphPad, San Diego, CA). […]
# Adenosine deaminase susceptibility
# in the presence or absence of 2 µM 2’-deoxycoformycin. […]
# P2 transporter (TbAT1) [4] = target: T1, P2 transporter (TbAT1); set-up: method as in PMID 24283924; details: ref [18]; cited from earlier work
# P1 transporter = target: P1 transporter; set-up: method as in PMID 10570043; details: ref [29]; cited from earlier work
# T1 sequence (Q9Y0I0 entry or part of it): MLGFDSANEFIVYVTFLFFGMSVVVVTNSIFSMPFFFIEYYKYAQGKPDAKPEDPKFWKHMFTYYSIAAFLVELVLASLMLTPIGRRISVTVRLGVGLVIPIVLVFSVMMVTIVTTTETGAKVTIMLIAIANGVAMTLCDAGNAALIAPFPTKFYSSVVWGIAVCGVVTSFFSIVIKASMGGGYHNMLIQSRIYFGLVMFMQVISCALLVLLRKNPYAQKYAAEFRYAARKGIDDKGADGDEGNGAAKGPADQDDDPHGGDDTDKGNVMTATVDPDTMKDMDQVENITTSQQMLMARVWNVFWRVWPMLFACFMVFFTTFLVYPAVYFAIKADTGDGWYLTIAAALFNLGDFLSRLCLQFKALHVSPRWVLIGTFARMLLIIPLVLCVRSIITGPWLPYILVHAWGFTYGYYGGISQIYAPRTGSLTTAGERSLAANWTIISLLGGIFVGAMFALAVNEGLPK
structure (smiles),measurement,setting,value
"Nc1ncnc2c1ncn2[C@@H]1O[C@H](CO)C[C@H]1O [Compound 3, cordycepin, reference compound]","P2 Ki, fold lower than the Km value for adenosine",P2 transporter (TbAT1) [1],roughly 3 fold
same,energy advantage at P2 versus adenosine,P2 transporter (TbAT1) [1],roughly 3 kJ mol^−1
same,P2 transporter ΔG^0,P2 transporter (TbAT1) [1]; Gibbs free energy from −RT ln(Ki),-9.2 kcal/mol
same,P2 transporter δ(ΔG^0),P2 transporter (TbAT1) [1]; in comparison to adenosine,-0.645 kcal/mol
same,AVG of cells/mL,"[2]; 2xEC50, 2 h",122500 cells/mL
same,Cells/mL,"[2]; 2xEC50, 2 h",130000 Cells/mL and 115000 Cells/mL
same,Counts,"[2]; 2xEC50, 2 h",52 and 46
same,AVG of cells/mL,"[2]; 2xEC50, 4 h",122500 cells/mL
same,Cells/mL,"[2]; 2xEC50, 4 h",110000 Cells/mL and 135000 Cells/mL
same,Counts,"[2]; 2xEC50, 4 h",44 and 54
same,AVG of cells/mL,"[2]; 2xEC50, 6 h",161250 cells/mL
same,Cells/mL,"[2]; 2xEC50, 6 h",150000 Cells/mL and 172500 Cells/mL
same,Counts,"[2]; 2xEC50, 6 h",60 and 69
same,AVG of cells/mL,"[2]; 2xEC50, 8 h",187500 cells/mL
same,Cells/mL,"[2]; 2xEC50, 8 h",207500 Cells/mL and 167500 Cells/mL
same,Counts,"[2]; 2xEC50, 8 h",83 and 67
same,AVG of cells/mL,"[2]; 2xEC50, 12 h",195000 cells/mL
same,Counts,"[2]; 2xEC50, 12 h",75 and 81
same,AVG of cells/mL,"[2]; 2xEC50, 24 h",106250 cells/mL
same,Cells/mL,"[2]; 2xEC50, 24 h",82500 Cells/mL and 130000 Cells/mL
same,Counts,"[2]; 2xEC50, 24 h",33 and 52
same,AVG of cells/mL,"[2]; 2xEC50, 36 h",81250 cells/mL
same,Counts,"[2]; 2xEC50, 36 h",29 and 36
same,AVG of cells/mL,"[2]; 2xEC50, 48 h",105000 cells/mL
same,Cells/mL,"[2]; 2xEC50, 48 h",105000 Cells/mL
same,Counts,"[2]; 2xEC50, 48 h",42
same,AVG of cells/mL,"[2]; 5xEC50, 2 h",145000 cells/mL
same,Cells/mL,"[2]; 5xEC50, 2 h",177500 Cells/mL and 112500 Cells/mL
same,Counts,"[2]; 5xEC50, 2 h",71 and 45
same,AVG of cells/mL,"[2]; 5xEC50, 4 h",118750 cells/mL
same,Cells/mL,"[2]; 5xEC50, 4 h",107500 Cells/mL and 130000 Cells/mL
same,Counts,"[2]; 5xEC50, 4 h",43 and 52
same,AVG of cells/mL,"[2]; 5xEC50, 6 h",130000 cells/mL
same,Cells/mL,"[2]; 5xEC50, 6 h",130000 Cells/mL
same,Counts,"[2]; 5xEC50, 6 h",52
same,AVG of cells/mL,"[2]; 5xEC50, 8 h",172500 cells/mL
same,Cells/mL,"[2]; 5xEC50, 8 h",177500 Cells/mL and 167500 Cells/mL
same,Counts,"[2]; 5xEC50, 8 h",71 and 67
same,AVG of cells/mL,"[2]; 5xEC50, 12 h",156250 cells/mL
same,Counts,"[2]; 5xEC50, 12 h",60 and 65
same,AVG of cells/mL,"[2]; 5xEC50, 24 h",33750 cells/mL
same,Cells/mL,"[2]; 5xEC50, 24 h",35000 Cells/mL and 32500 Cells/mL
same,Counts,"[2]; 5xEC50, 24 h",14 and 13
same,AVG of cells/mL,"[2]; 5xEC50, 36 h",31250 cells/mL
same,Cells/mL,"[2]; 5xEC50, 36 h",32500 Cells/mL and 30000 Cells/mL
same,Counts,"[2]; 5xEC50, 36 h",13 and 12
same,AVG of cells/mL,"[2]; 5xEC50, 48 h",15000 cells/mL
same,Cells/mL,"[2]; 5xEC50, 48 h",15000 Cells/mL
same,Counts,"[2]; 5xEC50, 48 h",6
same,EC50,"[3]; absence of deoxycoformycin, read-out: T. b. brucei EC50, -Dcf",440 ± 110 nM
same,EC50,"[3]; presence of 2 µM deoxycoformycin, read-out: T. b. brucei EC50, +Dcf",3.6 ± 1 nM
same,Ki,P2 transporter (TbAT1) [4],180 ± 20 nM
same,Ki,P1 transporter,210000 ± 48000 nM
